Source: patent US10835513B2, “Methods and treatments for the learning and memory deficits associated with Noonan syndrome” (The Regents of the University of California, priority 2013, dated 2020)

System: hippocampal slices from the AAV-PTPN11^D61G-infected mice
Test: 5 TBS-induced CA1 Schaffer collateral LTP, extracellular field recordings, bath-applied SL327
Assay type: cell-based
Settings: SL327 1 μM applied 1 hr before LTP induction and kept in bath
Description: FIG. 3 are graphs showing that PTPN11^D61G overexpression induces learning and memory and LTP deficits that can be reversed by MEK inhibition. Panel a) AAV5-PTPN11^D61G infection results in overexpression of SHP2^D61G. […] Panel b) PTPN11^D61G overexpression increases basal Erk activity (phospho-Erk level) and prevents further Eric activation in response to TBS. Left, Representative immunoblot showing p-Erk (upper) and total Eric (lower) in PTPN11^D61G-expressing slices and GFP-expressing slices. Slices were prepared 1 hr after TBS. […] Panels c and d) MEK inhibitor SL327 (CAS 305350-87-2) reverses spatial memory deficits in PTPN11^D61G-overexpressing mice. […]
For extracellular recordings of field excitatory postsynaptic potentials (fEPSP), sagittal slices (400 μm) were prepared with a vibratome (VT1000S, Leica) in ice-cold artificial cerebrospinal fluid (ACSF). […] Recording was performed in a submerged chamber perfused with ACSF (32° C.). fEPSPs were recorded with platinum-iridium electrodes placed in the CA1 stratum radiatum. […] Baseline responses were measured with stimulation (0.017 Hz, 0.1 ms pulse duration) at an intensity (typically 20-30 μA) that evoked a response that was approximately one third of the maximum evoked response. […] Initial fEPSP slopes were measured and normalized to the average of baseline (Clampfit 10.2).

SMILES: N#C/C(=C(/N)Sc1ccc(N)cc1)c1ccccc1C(F)(F)F [SL327]
- Average % fEPSP changes (last 10 minutes of recording), 5 TBS-induced LTP (GFP slices): 146.2±4.37%
- Average % fEPSP changes (last 10 minutes of recording), 5 TBS-induced LTP (PTPN11^D61G slices): 146.1±4.36%
